Series [1] can be described thus: Retention time of the compound by HPLC-MS/MS analysis. In kind it is physicochemical.
Series [2] has as its target T1, Lysine-specific histone demethylase 1A (Homo sapiens, UniProt O60341). Kind of series: Inhibition of recombinant His-tagged LSD1 (157 to 852 residues) (unknown origin) expressed in Escherichia coli BL21 (DE3) cells using H3K4me2 peptide as substrate incubated for 30 mins by fluorescence microplate reader analysis.
The test system of series [3] is MDA-MB-231. Kind of series: Induction of LSD1 degradation in human MDA-MB-231 cells incubated for 12 hrs by Western blotting analysis. The class given is cell-based.
Series [4] has as its system MDA-MB-231. Kind of series: Antimetastatic activity against human MDA-MB-231 cells expressing luciferase xenografted in female Balb/c nude mouse assessed as reduction in fluorescence intensity in lungs at 10 mg/kg, ip administered every 3 days and measured on day 15 by bioluminescence imaging analysis relative to control. The class given is functional. Particulars: time 15 day. The arrangement: scale not given: the % may be the effect or the level left.

The subject of series [5] is MDA-MB-231. Kind of series: Antimetastatic activity against human MDA-MB-231 cells expressing luciferase xenografted in female Balb/c nude mouse assessed as reduction in number of metastatic nodules in the lung at 10 mg/kg, ip administered every 3 days and measured after 30 days by H and E staining based histopathological analysis relative to control. More on the design: scale not given: the % may be the effect or the level left. To be noted: time 30 day. In kind it is functional.

For series [6], the system named is MDA-MB-231. The series is described as follows: Antimetastatic activity against human MDA-MB-231 cells expressing luciferase xenografted in female Balb/c nude mouse assessed as smaller metastatic nodules in lung at 10 mg/kg, ip administered every 3 days and measured after 30 days by H and E staining based analysis. Particulars: time 30.0 day. In kind it is functional, organism-based.

For series [7], the system named is MDA-MB-231. The series is described as follows: Antitumor activity against human MDA-MB-231 cells expressing luciferase xenografted in female Balb/c nude mouse assessed as increase in body weight at 10 mg/kg, ip administered every 3 days and measured after 33 days. In kind it is functional, organism-based. Particulars: time 33.0 day.
In series [8] the test system is MDA-MB-231. The series is described as follows: Antimetastatic activity against human MDA-MB-231 cells expressing luciferase xenografted in female Balb/c nude mouse assessed as reduction in lung metastasis at 10 mg/kg, ip administered every 3 days and measured on day 30 by bioluminescence imaging analysis. The class given is functional, organism-based. Particulars: time 30.0 day.

The target of series [9] is T1, Lysine-specific histone demethylase 1A. Kind of series: Binding affinity to recombinant LSD1 (unknown origin) at S817 residue by LC-MS/MS analysis.
The test system of series [10] is MDA-MB-231. Kind of series: Upregulation of RBMS3 protein expression in human MDA-MB-231 cells at 16 uM by Western blotting analysis. In kind it is functional, cell-based.
Series [11] has as its system MDA-MB-231. Kind of series: Inhibition of Twist1 production in human MDA-MB-231 cells at 16 uM by Western blotting analysis. The class given is functional, cell-based.
Series [12] relates to MDA-MB-231. Kind of series: Inhibition of MMP2 production in human MDA-MB-231 cells at 16 uM by Western blotting analysis. The class given is functional, cell-based.

Seven compounds from ChEMBL document CHEMBL6078646, “Target Ligand Separation and Identification of Isoforsythiaside as a Histone Lysine-Specific Demethylase 1 Covalent Inhibitor Against Breast Cancer Metastasis” (J Med Chem, 2024) can be followed below.

Calls of active or inactive are those of the source. No cut-off for these calls is given here. Residues, ends and D or L forms follow the SMILES beside them. *: point of attachment. Cbz = O=C(OCc1ccccc1)*

Regarding `COc1ccc([C@@H]2OC[C@H]3[C@@H]2CO[C@@H]3c2ccc(O[C@H]3O[C@H](CO)[C@@H](O)[C@H](O)[C@H]3O)c(OC)c2)cc1OC`, the Retention_time in series [1] is 40.6 min. For the same compound, the IC50 in series [2] stood at 5.51 µM.

Consider `C[C@@H]1O[C@@H](OC[C@H]2O[C@@H](OCCc3ccc(O)c(O)c3)[C@H](O)[C@@H](O)[C@@H]2OC(=O)/C=C/c2ccc(O)c(O)c2)[C@H](O)[C@H](O)[C@H]1O` [FORSYTHIASIDE], for which the Retention_time in series [1] came to 31.9 min. Moreover, the IC50 in [2] came out at 8.08 µM.

For `CC(C)C[C@@H](C=O)NC(=O)[C@H](CC(C)C)NC(=O)[C@H](CC(C)C)NC(=O)OCc1ccccc1` (Cbz-Leu-Leu-Leu-aldehyde), the outcome in [3] was inactive.

For `CC(=O)O[C@H]1C(=O)[C@@]2(C)[C@H]([C@H](OC(=O)c3ccccc3)[C@]3(O)C[C@H](OC(=O)[C@H](O)[C@@H](NC(=O)c4ccccc4)c4ccccc4)C(C)=C1C3(C)C)[C@]1(OC(C)=O)CO[C@@H]1C[C@@H]2O` [PACLITAXEL], the Activity is listed as 89.6% in series [4], 55.5% in series [5] and “Active; Slight Attenuation Of Body Weight Loss Observed” in [7]. The outcome in series [6] and in series [8] was Active. The IC50 in series [2] is 0.0296 µM.

For the compound `C[C@@H]1O[C@H](OC[C@H]2O[C@@H](OCCc3ccc(O)c(O)c3)[C@H](O)[C@@H](OC(=O)CCc3ccc(O)c(O)c3)[C@@H]2O)[C@H](O)[C@H](O)[C@H]1O`, the inhibition entry in series [2] is “inactive”. The result in [9] was inactive.

In the case of `C[C@@H]1O[C@@H](O[C@@H]2[C@@H](O)[C@H](OCCc3ccc(O)c(O)c3)O[C@H](CO)[C@H]2OC(=O)/C=C/c2ccc(O)c(O)c2)[C@H](O)[C@H](O)[C@H]1O` [ACETOSIDE], in [1], the Retention_time is 25.8 min. In series [2], the IC50 amounted to 3.6 µM.

On to `N[C@H]1CC[C@H](N[C@@H]2C[C@H]2c2ccccc2)CC1`, for which the AC30 entry in [10] is “Active”. Also, the inhibition entry in series [11] and in [12] was “Active” in each case.
